How the values were obtained:
side effects in patients = assay type: in vivo; conditions: onset as early as first week of treatment
[1] = tested on: PTEN-deficient tumor cell lines; conditions: PTEN-deficient lines including glioblastoma, prostate, breast, pancreas, lung and colon; cited from earlier work
[2] = tested on: NSCLC cell lines (KRAS mutant and KRAS wild-type); assay: panel of more than 100 NSCLC cell lines; assay type: cell-based
H2122 = assay: KRAS mutant NSCLC xenograft H2122; assay type: in vivo
[3] = tested on: human tumor cell line xenografts; assay: murine tumor xenograft models utilizing human tumor cell lines; assay type: in vivo; conditions: xenografts representing glioblastoma, prostate, breast, lung, colon and pancreatic cancers
human tumor cell lines = assay: antiproliferative activity in human tumor cell lines; assay type: cell-based; conditions: broad range of human tumor cell lines, including NSCLC, fibrosarcoma, glioblastoma, erythroleukemia, prostate, colon, ovarian, endometrial and breast cancers
[4] = tested on: several tumor types, such as sarcomas; assay: clinical development in advanced cancers; assay type: in vivo
A549 = assay: KRAS mutant NSCLC xenograft A549; assay type: in vivo

metabolism by CYP3A (CYP3A): extensively metabolized by CYP3A
Structure (SMILES): CO[C@H]1C[C@@H]2CC[C@@H](C)[C@@](O)(O2)C(=O)C(=O)N2CCCCC2C(=O)O[C@H]([C@H](C)C[C@@H]2CC[C@H](OP(C)(C)=O)[C@H](OC)C2)CC(=O)[C@H](C)/C=C(\C)[C@@H](O)[C@H](OC)C(=O)[C@H](C)C[C@@H](C)/C=C/C=C/C=C/1C (stereo in doubt) [Deforolimus]
side effect (side effects in patients): mouth sores typically reported as mucositis | antiproliferative activity [1]: demonstrated antiproliferative activity | activity in KRAS mutant versus KRAS wild-type cells [2]: the same in both KRAS mutant and KRAS wild-type cells | anti-tumor activity (H2122): showed anti-tumor activity | in vivo activity [3]: demonstrated in vivo activity | antiproliferative activity (human tumor cell lines): demonstrated antiproliferative activity | anti-tumor activity [4]: evidence of anti-tumor activity | anti-tumor activity (A549): showed anti-tumor activity
